16 compounds from patent US9404080B2, “Human taste cells capable of continuous proliferation” (B.R.A.I.N. BIOTECHNOLOGY RESEARCH AND INFORMATION NETWORK AG, priority 2012, dated 2016) can be followed below.

Entries after “also recorded” stand apart in the source; their conditions may differ.

Experiment [1] has as its system human taste cells BR-HTC8. Kind of experiment: Fluo-4 fluorescent calcium imaging assay in BR-HTC8. On Fluo-4 assay BR-HTC8: key: + indicates that the analysis was successful and that the mRNA was detected by RT-PCR or that stimulation of human taste cells with the respective taste molecule resulted in a dose-dependent increase in intracellular calcium or decrease in cellular membrane potential. To be noted: for change of Fluo4-fluorescence / intracellular calcium on addition of the test molecule: BR-HTC8, increasing concentrations in KH-buffer with Ca2+; for Fluo-4 assay BR-HTC8: dose-dependent increase in intracellular calcium on stimulation with the cognate bitter molecule of the TAS2R named in the row. The experiment is classed as cell-based. As for the experimental part: Before the assay, cells are maintained in HTC medium for at least 48 hours as described in Example 1. Cells are then trypsinized with accutase (e.g. PAA, L11-007) or TrypLE (e.g. Gibco, 12563) and seeded into poly-D-lysine coated 96-well assay plates (e.g. Corning) at a density of 15,000 cells/well in 100 μl HTC medium.
After 24 hours, the cells (still in 100 μl medium) are stained by addition of 100 μl of Fluo-4 staining solution, which consists of KH buffer (10 mM HEPES pH7.4 containing 118 mM NaCl, 4.7 mM KCl, 4.2 mM NaHCO3, 1.2 mM KH2PO4, 1.2 mM MgSO4, 1.3 mM CaCl2) containing 4 μM Fluo-4 (Molecular Probes) and incubation for 1 hour at 37° C. Final Fluo-4 concentration in the staining solution/medium mixture is 2 μM. Staining solution is then replaced by 80 μl KH-buffer per well and plates are transferred into a fluorescence microplate reader to monitor changes in Ca^2+-dependent fluorescence (excitation 488 nm, emission 530 nm) after the addition of 20 μl KH-buffer supplemented with the test molecule under investigation. The test molecule was added 16 seconds after starting the scan and baseline recording, mixed twice, and then recording continued for additional 44 seconds. Data points of a total of 18 reads were collected. Data analysis/Data recording—Calcium mobilization was measured as the change of peak fluorescence (ΔF) over the baseline level (F). Data were expressed as the mean S.E. of the ΔF/F value of replicated independent samples. Data analysis was done with software provided by the manufacturer of the microplate reader (e.g. Molecular Devices).
(§1) To test, whether stimulation of human taste cells with these taste molecules leads to changes in intracellular calcium the Fluo-4 fluorescent calcium imaging assay was performed as described above. Non-taste cells including HEK293 cells and non-lingual, proliferating primary cells isolated from the oral cavity served as a control and were treated equally throughout the procedure. Changes in Ca^2+-dependent Fluo-4 fluorescence were recorded on a Molecular Devices Fluorescence microplate reader. Measurement was started by addition of increasing concentrations of the taste molecules in KH-buffer to the cells. KH-buffer served as negative control and KH-buffer containing 1 μM ionomycin served as a positive control. […] Calcium signals for each test molecule are depicted as Relative Fluorescence Units (RFU), which means that calcium mobilization in response to taste molecules was calculated dF/F0, with dF is (peak fluorescence F1−baseline fluorescence F0). […] Data were obtained from several independent experiments and performed in triplicates.
In order to perform to the Fluo-4 fluorescent calcium imaging experiment in the absence of extracellular Ca^2+ the procedure was conducted as described above, however, the KH-buffer was prepared without addition of Ca^2+. Measurement was started by addition of increasing concentrations of the taste molecules in KH-buffer without Ca^2+ to the cells. KH-buffer without Ca^2+ served as negative control and KH-buffer without Ca^2+ containing 1 μM ionomycin served as a positive control.
To test, whether stimulation of human taste cells with oxytocin leads to changes in intracellular calcium the Fluo-4 fluorescent calcium imaging assay was performed as described above in Example 5. Briefly, the human taste cells were seeded in 96-well plates and stained with 2 μM of the calcium-sensitive fluorescence dye Fluo4 in HTC/KH buffer medium for one hour at 37° C. with subsequent replacement of the staining solution with KH-buffer. Non-taste cells including HEK293 cells and non-lingual, proliferating primary cells isolated from the oral cavity served as a control and were treated equally throughout the procedure. Changes in Ca^2+-dependent Fluo-4 fluorescence were recorded on a Molecular Devices Fluorescence microplate reader.
Background: Calcium flux is commonly read through the fluorescence of an indicator in the cells.

In experiment [2] the test system is human taste cells BR-HTC8. Kind of experiment: FLIPR fluorescent membrane potential (FMP) imaging assay in BR-HTC8. On FMP assay BR-HTC8: key: + indicates that the analysis was successful and that the mRNA was detected by RT-PCR or that stimulation of human taste cells with the respective taste molecule resulted in a dose-dependent increase in intracellular calcium or decrease in cellular membrane potential. The experiment is classed as cell-based. To be noted: for change of cellular membrane potential (FLIPR FMP dye fluorescence) on addition of the test molecule: BR-HTC8, increasing concentrations in KH-buffer; for FMP assay BR-HTC8: dose-dependent decrease in cellular membrane potential on stimulation with the cognate bitter molecule of the TAS2R. How it is done: This cell depolarization was measured by using voltage-sensitive dyes including FLIPR fluorescent membrane potential (FMP) dye (Molecular Devices R8123). Before the assay, cells were maintained in HTC medium for at least 48 hours as described above in Example 1. Cells were then trypsinized with accutase (e.g. PAA, L11-007) or TrypLE (e.g. Gibco, 12563) and seeded into poly-D-lysine coated 96-well assay plates (Corning) at a density of 15,000 cells/well in […].
After 24 hours, medium was removed and the cells are washed once with 100 μl KH buffer (10 mM HEPES pH7.4 containing 118 mM NaCl, 4.7 mM KCl, 4.2 mM NaHCO3, 1.2 mM KH2PO4, 1.2 mM MgSO4, 1.3 mM CaCl2) and then stained with 200 μl KH buffer containing FLIPR FMP dye according instructions of the manufacturer […] and incubation for 2 hours at 37° C. The plates were then transferred into a fluorescence microplate reader to monitor changes in membrane potential-dependent fluorescence (excitation 530 nm, emission 565 nm) after the addition of 50 μl KH-buffer supplemented with the test molecule under investigation. The test molecule was added 16 seconds after starting the scan and baseline recording, mixed twice, and then recording continued for additional 74 seconds. Data points of a total of 35 reads were collected.
Data analysis/Data recording—Changes of the membrane potential was measured as the change of peak fluorescence (ΔF) over the baseline level (F). Data were expressed as the mean S.E. of the ΔF/F value of replicated independent samples. Data analysis was done with software provided by the manufacturer of the microplate reader (Molecular Devices).
(§2) To test, whether stimulation of human taste cells with taste molecules leads to changes in cellular membrane potential the FLIPR fluorescent membrane potential assay was performed as described above. Non-taste cells including HEK293 cells and non-lingual, proliferating primary cells isolated from the oral cavity served as a control and were treated equally throughout the procedure. Changes in membrane potential were recorded on a Molecular Devices Fluorescence microplate reader. Measurement was started by addition of increasing concentrations of the taste molecules in KH-buffer to the cells. KH-buffer served as negative control and KH-buffer containing 4 μM FCCP (e.g. Sigma, C2920) served as a positive control. […] Data were obtained from several independent experiments and performed in triplicates.
as §2, with “This cell depolarization can be measured by using voltage-sensitive dyes including FLIPR fluorescent membrane potential (FMP) dye (Molecular Devices R8123) as described above in Example 6. To” for “To”, “oxytocin” for “taste molecules”, “oxytocin” for “the taste molecules”

The subject of experiment [3] is Non-taste cells including HEK293 cells, Cal33 cells, and non-lingual, proliferating primary cells isolated from the oral cavity. Kind of experiment: Fluo-4 fluorescent calcium imaging assay in non-taste control cells. The experiment is classed as cell-based, human. As for the experimental part: Briefly, human taste cells were seeded in 96-well plates and stained with Fluo4-AM. Non-taste cells including HEK293 cells, Cal33 cells, and non-lingual, proliferating primary cells isolated from the oral cavity served as a control. Changes in Ca^2+-dependent Fluo-4 fluorescence were recorded on a Molecular Devices fluorescence microplate reader. Measurement was started by addition of increasing concentrations of the taste molecules. […] Calcium signals for each test molecule are depicted as relative fluorescence units (RFU).
as §1

The test system of another experiment is BR-HTC38 cells. Kind of experiment: Fluo-4 fluorescent calcium imaging assay in TAS2R38-transduced BR-HTC38. The experiment is classed as cell-based, human. To be noted: BR-HTC38 (TAS2R38 expressed) vs BR-HTC8. How it is done:
Changes in Ca^2+-dependent Fluo-4 fluorescence were recorded on a Molecular Devices fluorescence microplate reader. Measurement was started by addition of increasing concentrations of the taste molecules in KH-buffer to the cells. KH-buffer served as negative control and KH-buffer containing 1 μM ionomycin served as a positive control. […] Calcium signals for each test molecule are depicted as Relative Fluorescence Units (RFU), which means that calcium mobilization in response to taste molecules was calculated dF/F0, with dF is (peak fluorescence F1−baseline fluorescence F0). […] Data were obtained from several independent experiments and performed in triplicates.

As for `Nc1ncnc2c1ncn2[C@@H]1O[C@H](COP(=O)(O)OP(=O)(O)OP(=O)(O)O)[C@@H](O)[C@H]1O` [ATP, adenosine triphosphate], in experiment [1], the “change of Fluo4-fluorescence / intracellular calcium on addition of the test molecule” value is listed as “increase in intracellular calcium”. The “change of cellular membrane potential (FLIPR FMP dye fluorescence) on addition of the test molecule” value (from here on “change of cellular membrane potential”) in experiment [2] was “dose-dependent decrease in cellular membrane potential; also recorded: dose-dependent decrease of membrane potential”.

`CC1=CC(=O)[N-]S(=O)(=O)O1.[K+]` [Acesulfame K]: in experiment [1], the “change of Fluo4-fluorescence / intracellular calcium on addition of the test molecule” value is on record as “do not trigger an increase in intracellular calcium” and the “Fluo-4 assay BR-HTC8” value is reported as “+”. Also, in experiment [2], the “change of cellular membrane potential” value is on record as “decrease in cellular membrane potential” and the “FMP assay BR-HTC8” value was “+”.

Regarding `COc1cccc2c1cc([N+](=O)[O-])c1c(C(=O)O)cc3c(c12)OCO3` [Aristolochic acid], in experiment [1], the “change of Fluo4-fluorescence / intracellular calcium on addition of the test molecule” value is recorded as “dose-dependent increase of Fluo4-fluorescence” and the “Fluo-4 assay BR-HTC8” value is given as “+”. For the same compound, in experiment [2], the “change of cellular membrane potential” value is on record as “dose-dependent decrease in cellular membrane potential; also recorded: dose-dependent decrease of membrane potential” and the “FMP assay BR-HTC8” value was “+”. Besides, the “increase of Fluo4-fluorescence in control cells” value (shortened to “increase of Fluo4-fluorescence”) in experiment [3] is on record as “not in control cells”.

For `O=C(N[C@H](CO)[C@H](O)c1ccc([N+](=O)[O-])cc1)C(Cl)Cl` [Chloramphenicole], in experiment [1], the “Fluo-4 assay BR-HTC8” value is given as “+”.

Regarding `CCN(CC)CCCC(C)Nc1ccnc2cc(Cl)ccc12` (centres unmarked) [Chloroquine], the “FMP assay BR-HTC8” value in experiment [2] is on record as “+”.

As for `CC[N+](CC)(CC(=O)Nc1c(C)cccc1C)Cc1ccccc1.O=C([O-])c1ccccc1` [Denatonium benzoat], the “Fluo-4 assay BR-HTC8” value in experiment [1] is reported as “+”.

For `O=C(O[C@@H]1Cc2c(O)cc(O)cc2O[C@@H]1c1cc(O)c(O)c(O)c1)c1cc(O)c(O)c(O)c1` [EGCG], the “Fluo-4 assay BR-HTC8” value in experiment [1] is on record as “+”.

With `O=S(=O)(NCCNC/C=C/c1ccc(Br)cc1)c1cccc2cnccc12` [H89], in experiment [1] (0.5 μM H89, BR-HTC8), the “calcium response to saccharin in the presence of H89” value was “not reduced” and the “calcium signalling on stimulation with salicin in the presence of H89” value is “slightly inhibited”.

Regarding `COc1cc(OC2CCN(C(C)=O)CC2)ccc1C(=O)N1CCC(N2C(=O)OCc3ccccc32)CC1` [L371,257], the “calcium signalling on stimulation with oxytocin in the presence of L371,257” value in experiment [1] (40 nM L371,257, BR-HTC8) is given as “inhibited”.

On to `CC1COc2c(N3CCN(C)CC3)c(F)cc3c(=O)c(C(=O)O)cn1c23` (centres unmarked) [Ofloxacine], for which the “Fluo-4 assay BR-HTC8” value in experiment [1] is “+”.

`Cc1ccccc1C(OCCN(C)C)c1ccccc1` (centres unmarked) [Orphenadrine]: the “Fluo-4 assay BR-HTC8” value in experiment [1] is given as “+”.

In the case of `NC(=S)Nc1ccccc1` [PTC, phenylthiocarbamide], in experiment [1], the “change of Fluo4-fluorescence / intracellular calcium on addition of the test molecule” value is recorded as “dose-dependent increase of Fluo4-fluorescence” and the “Fluo-4 assay BR-HTC8” value is “+”. Moreover, the “FMP assay BR-HTC8” value in experiment [2] was “+”. Also, in the experiment on BR-HTC38 cells, the “dose-dependent Fluo-4 calcium response in BR-HTC38 compared with parental BR-HTC8” value is “enhanced”.

In the case of `COc1ccc2c(c1)CC[C@@H]1[C@@H]2CC[C@]2(C)[C@@H](NCCCCCCN3C(=O)C=CC3=O)CC[C@@H]12` [U73122], in experiment [1] (5 μM U73122, BR-HTC8), the “calcium response to saccharin in the presence of U73122” value is “not reduced” and the “calcium signalling on stimulation with salicin in the presence of U73122” value is “inhibited”.

On to `CCCCC/C=C\C/C=C\CCCCCCCC(=O)O` [linoleic acid], for which the “change of Fluo4-fluorescence / intracellular calcium on addition of the test molecule” value in experiment [1] is “dose-dependent increase of Fluo4-fluorescence”. Moreover, in experiment [3], the “increase of Fluo4-fluorescence” value is listed as “not in control cells”.

With `CCCCCCCC/C=C\CCCCCCCC(=O)O` [oleic acid], the “change of Fluo4-fluorescence / intracellular calcium on addition of the test molecule” value in experiment [1] is listed as “dose-dependent increase of Fluo4-fluorescence”. Moreover, in experiment [3], the “increase of Fluo4-fluorescence” value was “not in control cells”.

Take `CC[C@H](C)[C@@H]1NC(=O)[C@H](Cc2ccc(O)cc2)NC(=O)[C@@H](N)CSSC[C@@H](C(=O)N2CCC[C@H]2C(=O)N[C@@H](CC(C)C)C(=O)NCC(N)=O)NC(=O)[C@H](CC(N)=O)NC(=O)[C@H](CCC(N)=O)NC1=O` [oxytocin]: the “change of Fluo4-fluorescence / intracellular calcium on addition of the test molecule” value in experiment [1] is listed as “dose-dependent increase of Fluo4-fluorescence”. Moreover, the “change of cellular membrane potential” value in experiment [2] was “dose-dependent decrease of membrane potential”.
